The text below walks through data of patent US11981661B2, “Heterocyclic compounds” (Hoffmann-La Roche Inc., priority 2020, dated 2024).

SMILES strings stand for the structures.

For this experiment, the target named is T1, MAGL (Homo sapiens, UniProt Q99685).
T1 sequence (Q99685 1-303): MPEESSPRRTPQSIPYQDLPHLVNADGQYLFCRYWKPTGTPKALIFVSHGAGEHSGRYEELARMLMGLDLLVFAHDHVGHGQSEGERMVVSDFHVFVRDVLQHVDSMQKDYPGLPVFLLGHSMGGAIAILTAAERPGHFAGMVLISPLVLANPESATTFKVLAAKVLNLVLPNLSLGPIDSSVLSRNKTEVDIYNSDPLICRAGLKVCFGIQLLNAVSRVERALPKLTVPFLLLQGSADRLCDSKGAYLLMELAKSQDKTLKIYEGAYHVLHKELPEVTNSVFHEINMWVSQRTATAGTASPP
The experiment can be described thus: 2-AG assay (MAGL inhibitory activity, hydrolysis of 2-arachidonoylglycerol followed by mass spectrometry). Format: biochemical. The settings on record: 50 pM MAGL, 8 μM 2-arachidonoylglycerol, 15 min preincubation, 30 min incubation at RT, concentration range 12.5 μM to 0.8 pM. The method, boiled down: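 50 pM MAGL preincubated 15 min at RT with compound (12.5 μM to 0.8 pM) in 50 mM TRIS, 1 mM EDTA, 0.01% Tween, then 8 μM 2-arachidonoylglycerol for 30 min at RT. Arachidonic acid measured by RapidFire SPE–triple quadrupole MS in negative mode, normalised to d8-arachidonic acid.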

The IC50 is the concentration needed to halve the response being measured. Lower therefore signals greater potency. With `CN(Cc1ccc(C(F)(F)F)cc1F)C1CN(C(=O)CC[C@@H]2COC(=O)N2)C1` [Example 162, (4R)-4-[3-[3-[[2-Fluoro-4-(trifluoromethyl)phenyl]methyl-methyl-amino]azetidin-1-yl]-3-oxo-propyl] oxazolidin-2-one], the midpoint of inhibition, the IC50, lay at 108 nM.

Compound `O=C1N[C@H](CCC(=O)N2CC(c3ccc(C4CC5(CCC5)C4)nc3)C2)CO1` [Example 163, (4R)-4-[3-Oxo-3-[3-(6-spiro[3.3]heptan-2-yl-3-pyridyl)azetidin-1-yl]propyl] oxazolidin-2-one] gave an IC50 of 9 nM.

For `O=C1N[C@H](CCC(=O)N2CC(c3cnc(C4CC5(CCC5)C4)cn3)C2)CO1` [Example 164, (4R)-4-[3-Oxo-3-[3-(5-spiro[3.3]heptan-2-ylpyrazin-2-yl)azetidin-1-yl]propyl] oxazolidin-2-one], the IC50 is 12 nM.

Take `CC(C)(C)Cc1nnc(C23CC(C4CN(C(=O)CC[C@@H]5COC(=O)N5)C4)(C2)C3)o1` [Example 165, (4R)-4-[3-[3-[3-[5-(2,2-Dimethyl-propyl)-1,3,4-oxadiazol-2-yl]-1-bicyclo[1.1.1]pentanyl]azetidin-1-yl]-3-oxo-propyl] oxazolidin-2-one]: the midpoint of inhibition, the IC50, lay at 24 nM.

Compound `O=C1N[C@H](CCC(=O)N2CC(OCc3ccc(S(=O)(=O)C(F)(F)F)cc3)C2)CO1` [Example 166, (4R)-4-[3-Oxo-3-[3-[[4-(trifluoro-methylsulfonyl)phenyl]methoxy]azetidin-1-yl]propyl]oxazolidin-2-one] displayed an IC50 of 48 nM.

Compound `O=C1N[C@H](CCC(=O)N2CC(OCc3cccc(S(=O)(=O)C(F)(F)F)c3)C2)CO1` [Example 167, (4R)-4-[3-Oxo-3-[3-[[3-(trifluoro-methylsulfonyl)phenyl]methoxy]azetidin-1-yl]propyl]oxazolidin-2-one] displayed an IC50 of 27 nM.

For `O=C1N[C@H](CCC(=O)N2CC(c3noc(-c4ccc(C(F)(F)F)nc4)n3)C2)CO1` [Example 168, (4R)-4-[3-Oxo-3-[3-[5-[6-(trifluoromethyl)-3-pyridyl]-1,2,4-oxadiazol-3-yl]azetidin-1-yl]propyl]oxazolidin-2-one], the IC50 was determined as 2020 nM.

With `O=C1N[C@H](CCC(=O)N2CC(c3noc(C45CC(C(F)(F)F)(C4)C5)n3)C2)CO1` [Example 169, (4R)-4-[3-Oxo-3-[3-[5-[3-(trifluoromethyl)-1-bicyclo[1.1.1]pentanyl]-1,2,4-oxadiazol-3-yl]azetidin-1-yl]propyl] oxazolidin-2-one], half-maximal inhibition (IC50) required 854 nM.

Compound `CC(C)(O)C1CN(c2ccc(C3CN(C(=O)CC[C@@H]4COC(=O)N4)C3)cn2)C1` [Example 170, (4R)-4-[3-[3-[6-[3-(1-Hydroxy-1-methyl-ethyl)azetidin-1-yl]-3-pyridyl]azetidin-1-yl]-3-oxo-propyl]oxazolidin-2-one] had an IC50 of 329 nM.

`O=C1N[C@H](CCC(=O)N2CC(c3ccc(C4(CO)CC4)cc3)C2)CO1` [Example 171, (4R)-4-[3-[3-[4-[1-(Hydroxy-methyl)cyclo-propyl]phenyl]azetidin-1-yl]-3-oxo-propyl] oxazolidin-2-one] registered a half-maximal inhibitory concentration (IC50) of 21 nM.

On to `O=C1N[C@H](CCC(=O)N2CC(c3ccc(N4CC5(CCCO5)C4)nc3)C2)CO1` [Example 172, (4R)-4-[3-[3-[6-(5-Oxa-2-azaspiro[3.4]octan-2-yl)-3-pyridyl]azetidin-1-yl]-3-oxo-propyl]oxazolidin-2-one], for which the IC50 was 827 nM.

As to `O=C1N[C@H](CCC(=O)N2CC(c3ccc(N4CCC5(C4)CC5(F)F)nc3)C2)CO1` (stereo partly drawn) [Example 173, (4R)-4-[3-[3-[6-(2,2-Difluoro-5-azaspiro[2.4]heptan-5-yl)-3-pyridyl]azetidin-1-yl]-3-oxo-propyl]oxazolidin-2-one], the IC50 was determined as 45 nM.

For `O=C1N[C@H](CCC(=O)N2CC(c3ccc(Oc4cnc(C(F)(F)F)cn4)cc3)C2)CO1` [Example 174, (4R)-4-[3-Oxo-3-[3-[4-[5-(trifluoromethyl)pyrazin-2-yl]oxyphenyl]azetidin-1-yl]propyl]oxazolidin-2-one], the IC50 amounted to 20 nM.

Take `O=C1N[C@H](CCC(=O)N2CC(c3ccc(NCC4(C(F)(F)F)CC4)cn3)C2)CO1` [Example 175, (4R)-4-[3-Oxo-3-[3-[5-[[1-(trifluoromethyl)cyclopropyl]methylamino]-2-pyridyl]azetidin-1-yl]propyl]oxazolidin-2-one]: the 50% inhibitory concentration (IC50) was determined as 17 nM.

As to `O=C1N[C@H](CCC(=O)N2CC(c3cnc(NCC4(C(F)(F)F)CC4)cn3)C2)CO1` [Example 176, (4R)-4-[3-Oxo-3-[3-[5-[[1-(trifluoromethyl)cyclopropyl]methylamino]pyrazin-2-yl]azetidin-1-yl]propyl] oxazolidin-2-one], the half-maximal inhibitory concentration (IC50) stood at 12 nM.

Regarding `O=C1N[C@H](CCC(=O)N2CC(c3ccc(-c4nc(C5CC5)n[nH]4)cc3)C2)CO1` [Example 177, (4R)-4-[3-[3-[4-(3-Cyclo-propyl-1H-1,2,4-triazol-5-yl)phenyl]azetidin-1-yl]-3-oxo-propyl]oxazolidin-2-one], the IC50 came out at 353 nM.

Regarding `O=C1N[C@H](CCC(=O)N2CC(c3ccc(-c4nc(C5(C(F)(F)F)CC5)n[nH]4)cc3)C2)CO1` [Example 178, (4R)-4-[3-Oxo-3-[3-[4-[3-[1-(trifluoro-methyl)cyclo-propyl]-1H-1,2,4-triazol-5-yl]phenyl]azetidin-1-yl]propyl]oxazolidin-2-one], the IC50 came out at 181 nM.

`CS(=O)(=O)c1cccc(CC2CC3(C2)CN(C(=O)CC[C@@H]2COC(=O)N2)C3)c1` [Example 179, (4R)-4-[3-[6-[(3-Methyl-sulfonylphenyl)methyl]-2-azaspiro[3.3]heptan-2-yl]-3-oxo-propyl]oxazolidin-2-one] yielded an IC50 of 46 nM.

On to `CS(=O)(=O)c1ccc(CC2CC3(C2)CN(C(=O)CC[C@@H]2COC(=O)N2)C3)cc1` [Example 180, (4R)-4-[3-[6-[(4-Methyl-sulfonylphenyl)methyl]-2-azaspiro[3.3]heptan-2-yl]-3-oxo-propyl]oxazolidin-2-one], for which the IC50 worked out at 93 nM.

For the compound `O=C1N[C@H](CCC(=O)N2CC3(CC(Cc4ccc(C(F)(F)F)nn4)C3)C2)CO1` [Example 181, (4R)-4-[3-Oxo-3-[6-[[6-(trifluoro-methyl)pyridazin-3-yl]methyl]-2-azaspiro[3.3]heptan-2-yl]propyl] oxazolidin-2-one], the IC50 is 227 nM.

The compound `O=C1N[C@H](CCC(=O)N2CC3(CC(Cc4cnc(C(F)(F)F)nc4)C3)C2)CO1` [Example 182, (4R)-4-[3-Oxo-3-[6-[[2-(trifluoro-methyl)pyrimidin-5-yl]methyl]-2-azaspiro[3.3]heptan-2-yl]propyl] oxazolidin-2-one] displayed an IC50 of 246 nM.

With `O=C1N[C@H](CCC(=O)N2CC3(CC(Cc4ncc(C(F)(F)F)cn4)C3)C2)CO1` [Example 183, (4R)-4-[3-Oxo-3-[6-[[5-(trifluoro-methyl)pyrimidin-2-yl]methyl]-2-azaspiro[3.3]heptan-2-yl]propyl] oxazolidin-2-one], half-maximal inhibition (IC50) was put at 84 nM.

For `CS(=O)(=O)c1cc(F)cc(CC2CC3(C2)CN(C(=O)CC[C@@H]2COC(=O)N2)C3)c1` [Example 184, (4R)-4-[3-[6-[(3-Fluoro-5-methylsulfonyl-phenyl)methyl]-2-azaspiro[3.3]heptan-2-yl]-3-oxo-propyl]oxazolidin-2-one], 59 nM corresponded to half-maximal inhibition (IC50).

On to `O=C1N[C@H](CCC(=O)N2CC3(CC(n4cnc(C5CC5)n4)C3)C2)CO1` [Example 185, (4R)-4-[3-[6-(3-Cyclopropyl-1,2,4-triazol-1-yl)-2-azaspiro [3.3]heptan-2-yl]-3-oxo-propyl] oxazolidin-2-one], for which the IC50 is 464 nM.

`O=C1N[C@H](CCC(=O)N2CC3(CC(Cc4cccc(S(=O)(=O)C(F)(F)F)c4)C3)C2)CO1` [Example 186, (4R)-4-[3-Oxo-3-[6-[[3-(trifluoro-methylsulfonyl)phenyl]methyl]-2-azaspiro[3.3]heptan-2-yl]propyl] oxazolidin-2-one] yielded an IC50 of 2 nM.

In turn, `O=C1N[C@H](CCC(=O)N2CC3(CN(Cc4ccc(S(=O)(=O)C(F)(F)F)cc4)C3)C2)CO1` [Example 187, (4R)-4-[3-Oxo-3-[6-[[4-(trifluoro-methylsulfonyl)phenyl]methyl]-2,6-diazaspiro [3.3]heptan-2-yl]propyl] oxazolidin-2-one] came in with an IC50 of 206 nM.

As to `O=C1N[C@H](CCC(=O)N2CC3(CCC(Cc4ccc(C(F)(F)F)nc4)CC3)C2)CO1` [Example 188, (4R)-4-[3-Oxo-3-[7-[[6-(trifluoro-methyl)-3-pyridyl]methyl]-2-azaspiro[3.5]nonan-2-yI]propyl] oxazolidin-2-one], half-maximal inhibition (IC50) was put at 25 nM.

Turning to `O=C1N[C@H](CCC(=O)N2CC3(CCC(Cc4ccc(C(F)(F)F)cn4)CC3)C2)CO1` [Example 189, (4R)-4-[3-Oxo-3-[7-[[5-(trifluoro-methyl)-2-pyridyl]methyl]-2-azaspiro[3.5]nonan-2-yl]propyl] oxazolidin-2-one], the IC50 is 16 nM.

`O=C1N[C@H](CCC(=O)N2CC3(CCC(Cc4cnc(C(F)(F)F)cn4)CC3)C2)CO1` [Example 190, (4R)-4-[3-Oxo-3-[7-[[5-(trifluoro-methyl)pyrazin-2-yl]methyl]-2-azaspiro[3.5]nonan-2-yl]propyl] oxazolidin-2-one] showed an IC50 of 140 nM.

For the compound `O=C1N[C@H](CCC(=O)N2CC3(CCC(Cc4ccc(OC(F)F)nc4)CC3)C2)CO1` [Example 191, (4R)-4-[3-[7-[[6-(Difluoro-methoxy)-3-pyridyl]methyl]-2-azaspiro[3.5]nonan-2-yl]-3-oxo-propyl] oxazolidin-2-one], the half-maximal inhibitory concentration (IC50) was found to be 37 nM.
